Reference: PubChem BioAssay AID248 (DTP/NCI, 2004)
Where “and” joins values, the source holds several entries; their conditions need not be identical. Equal entries are not always repeated. Toxic doses and inconclusive results are not listed. No stated cut-off is given here; in the data, active means T/C of 150% or more; inactive means T/C below 125%.

Test system: L1210 leukemia ip in BDF1 mice, survival T/C
Experiment: NCI In Vivo Anticancer Drug Screen. Data for tumor model L1210 Leukemia (intraperitoneal) in B6D2F1 (BDF1) mice
Conditions: endpoint: mean survival time, higher = longer survival
Method in brief: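 Read-out is survival time, reported as the treated-group measurement over the vehicle-control measurement.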

[1] = dose: 100.0 mg/kg/injection, schedule: Q04DX002 (ip), vehicle: Klucel (hydroxypropylcellulose) (HPC)
[2] = dose: 50.0 mg/kg/injection, schedule: Q01DX009 (ip), vehicle: saline with Tween-80
[3] = dose: 100.0 mg/kg/injection, schedule: Q01DX009 (ip), vehicle: saline with Tween-80
[4] = dose: 100.0 mg/kg/injection, schedule: Q01DX001 (ip), vehicle: saline
[5] = dose: 200.0 mg/kg/injection, schedule: Q01DX001 (ip), vehicle: saline
[6] = dose: 400.0 mg/kg/injection, schedule: Q01DX001 (ip), vehicle: saline
[7] = dose: 100.0 mg/kg/injection, schedule: Q01DX001 (ip), vehicle: other
[8] = dose: 100.0 mg/kg/injection, schedule: Q04DX003 (ip), vehicle: saline
[9] = dose: 200.0 mg/kg/injection, schedule: Q01DX001 (ip), vehicle: other
[10] = dose: 200.0 mg/kg/injection, schedule: Q04DX003 (ip), vehicle: saline
[11] = dose: 400.0 mg/kg/injection, schedule: Q01DX001 (ip), vehicle: other
[12] = dose: 400.0 mg/kg/injection, schedule: Q04DX003 (ip), vehicle: saline
[13] = dose: 100.0 mg/kg/injection, schedule: Q04DX003 (ip), vehicle: Klucel (hydroxypropylcellulose) (HPC)
[14] = dose: 200.0 mg/kg/injection, schedule: Q04DX003 (ip), vehicle: Klucel (hydroxypropylcellulose) (HPC)
[15] = dose: 100.0 mg/kg/injection, schedule: Q01DX001 (ip), vehicle: saline with Tween-80
[16] = dose: 200.0 mg/kg/injection, schedule: Q01DX001 (ip), vehicle: saline with Tween-80
[17] = dose: 400.0 mg/kg/injection, schedule: Q01DX001 (ip), vehicle: saline with Tween-80

Measured: T/C

CC(=O)OCC1OC(N2C(=O)/C(=C/c3c(Cl)cccc3Cl)SC2=S)C(OC(C)=O)C(OC(C)=O)C1OC(C)=O (stereo not drawn)
inactive: dose: 25.0 mg/kg/injection, schedule: Q01DX005 (ip), vehicle: other 103 % of control | dose: 50.0 mg/kg/injection, schedule: Q01DX005 (ip), vehicle: other 101 % of control | dose: 100.0 mg/kg/injection, schedule: Q01DX005 (ip), vehicle: other 104 % of control | dose: 200.0 mg/kg/injection, schedule: Q01DX005 (ip), vehicle: other 93 % of control

ClCCN(CCCl)c1ccc(C=Nc2cc(Cl)ccc2-n2ccnc2)c(Cl)c1
inactive: [1] 98 % of control | dose: 200.0 mg/kg/injection, schedule: Q04DX002 (ip), vehicle: Klucel (hydroxypropylcellulose) (HPC) 95 % of control | dose: 400.0 mg/kg/injection, schedule: Q04DX002 (ip), vehicle: Klucel (hydroxypropylcellulose) (HPC) 98 % of control

O=S(=O)(OC1CCCC1Cl)c1ccc(Br)cc1 (stereo not drawn)
inactive: [2] 93 % of control | [3] 93 % of control | dose: 200.0 mg/kg/injection, schedule: Q01DX009 (ip), vehicle: saline with Tween-80 86 % of control

N#CCc1ccc(C(=O)O)cc1
inactive: dose: 100.0 mg/kg/injection, schedule: Q01DX001 (ip), vehicle: carboxymethylcellulose (CMC) 106 % of control | dose: 200.0 mg/kg/injection, schedule: Q01DX001 (ip), vehicle: carboxymethylcellulose (CMC) 92 % of control

Cc1nc(C#N)c(N)o1
inactive: dose: 5.0 mg/kg/injection, schedule: Q01DX001 (ip), vehicle: saline 103 % of control | dose: 10.0 mg/kg/injection, schedule: Q01DX001 (ip), vehicle: saline 103 % of control | dose: 20.0 mg/kg/injection, schedule: Q01DX001 (ip), vehicle: saline 98 % of control

CC(C)CC(N)C(=O)NC1(C(=O)O)C2CC3CC(C2)CC1C3 (stereo not drawn)
inactive: dose: 17.5 mg/kg/injection, schedule: Q01DX009 (ip), vehicle: Klucel (hydroxypropylcellulose) (HPC) 101 % of control | dose: 35.0 mg/kg/injection, schedule: Q01DX009 (ip), vehicle: Klucel (hydroxypropylcellulose) (HPC) 96 % of control | dose: 70.0 mg/kg/injection, schedule: Q01DX009 (ip), vehicle: Klucel (hydroxypropylcellulose) (HPC) 97 % of control | dose: 75.0 mg/kg/injection, schedule: Q01DX009 (ip), vehicle: Klucel (hydroxypropylcellulose) (HPC) 103 % of control | dose: 150.0 mg/kg/injection, schedule: Q01DX009 (ip), vehicle: Klucel (hydroxypropylcellulose) (HPC) 97 % of control | dose: 300.0 mg/kg/injection, schedule: Q01DX009 (ip), vehicle: Klucel (hydroxypropylcellulose) (HPC) 92 % of control

CCCC(C)(CO)COC(N)=O (stereo not drawn)
inactive: [4] 105 % of control | [5] 103 % of control | [6] 111 % of control

OC(CNc1ccccc1)CN1CCOCC1 (stereo not drawn)
inactive: [7] 101 % of control | [8] 100 % of control | [9] 96 % of control | [10] 94 % of control | [11] 105 % of control | [12] 94 % of control

CC(=O)Nc1ccc(S(=O)(=O)Nc2cc(C)ns2)cc1
inactive: [8] 92 % of control | [10] 96 % of control | [12] 100 % of control

CC(C)CCN
inactive: [4] 115 % of control | dose: 100.0 mg/kg/injection, schedule: Q01DX009 (ip), vehicle: saline 98 % of control and 104 % of control | dose: 100.0 mg/kg/injection, schedule: Q04DX002 (ip), vehicle: saline 102 % of control and 103 % of control | [8] 98 % of control | [5] 112 % of control | dose: 200.0 mg/kg/injection, schedule: Q01DX009 (ip), vehicle: saline 107 % of control and 112 % of control | dose: 200.0 mg/kg/injection, schedule: Q04DX002 (ip), vehicle: saline 103 % of control and 108 % of control | [10] 98 % of control | [6] 107 % of control | dose: 400.0 mg/kg/injection, schedule: Q01DX009 (ip), vehicle: saline 114 % of control and 117 % of control | dose: 400.0 mg/kg/injection, schedule: Q04DX002 (ip), vehicle: saline 101 % of control and 102 % of control | [12] 112 % of control

CNC(=O)NN
inactive: dose: 25.0 mg/kg/injection, schedule: Q04DX002 (ip), vehicle: saline with Tween-80 97 % of control | dose: 50.0 mg/kg/injection, schedule: Q04DX002 (ip), vehicle: saline with Tween-80 93 % of control | dose: 100.0 mg/kg/injection, schedule: Q04DX002 (ip), vehicle: saline with Tween-80 90 % of control

O=C(O)c1ccc[n+]([O-])c1
inactive: dose: 100.0 mg/kg/injection, schedule: Q04DX003 (ip), vehicle: saline with Tween-80 100 % of control | dose: 200.0 mg/kg/injection, schedule: Q04DX003 (ip), vehicle: saline with Tween-80 100 % of control

CCOC(=O)/C(C(N)=O)=C(/C)C=C(C)C
inactive: dose: 10.0 mg/kg/injection, schedule: Q01DX001 (ip), vehicle: acetone 101 % of control | dose: 20.0 mg/kg/injection, schedule: Q01DX001 (ip), vehicle: acetone 100 % of control

CCN(CC)CCCNc1ccnc2cc(Cl)ccc12
inactive: [4] 94 % of control

Nc1nc(-c2ccccc2)c(CCCNC(=O)c2ccc([N+](=O)[O-])cc2)c(=O)[nH]1
inactive: [13] 93 % of control | [14] 93 % of control | dose: 400.0 mg/kg/injection, schedule: Q04DX003 (ip), vehicle: Klucel (hydroxypropylcellulose) (HPC) 90 % of control

CCCCCCCCCCOB(OCCCCCCCCCC)OCCCCCCCCCC
inactive: dose: 25.0 mg/kg/injection, schedule: Q01DX009 (ip), vehicle: saline with Tween-80 93 % of control | [2] 96 % of control | [3] 96 % of control

N#Cc1cn(C2OC(CO)C(O)C2O)c2ncnc(N)c12 (stereo not drawn)
inactive: dose: 0.04 mg/kg/injection, schedule: Q01DX009 (ip), vehicle: saline 119 % of control | dose: 0.08 mg/kg/injection, schedule: Q01DX005 (ip), vehicle: saline 86 % of control | dose: 0.09 mg/kg/injection, schedule: Q01DX009 (ip), vehicle: saline 107 % of control | dose: 0.12 mg/kg/injection, schedule: Q01DX005 (ip), vehicle: saline 96 % of control

CC(=O)OCC(=O)C12OC1CC1C3CCC4CC(=O)CCC4(C)C3CC(=O)C12C (stereo not drawn)
inactive: [7] 89 % of control | [9] 90 % of control | [11] 97 % of control

CC(C)=NNC(=O)NO
inactive: dose: 75.0 mg/kg/injection, schedule: Q01DX001 (ip), vehicle: saline 102 % of control

O=c1[nH]c(=O)n(C2OC(CO)C(O)C2O)cc1O (stereo not drawn)
inactive: dose: 100.0 mg/kg/injection, schedule: Q01DX001 (ip), vehicle: water 92 % of control | dose: 200.0 mg/kg/injection, schedule: Q01DX001 (ip), vehicle: water 94 % of control | dose: 400.0 mg/kg/injection, schedule: Q01DX001 (ip), vehicle: water 103 % of control

CN(C)c1ccc(/C=N/NC(=O)c2ccccc2NC(=O)c2ccc(Cl)cc2)c(Cl)c1
inactive: dose: 100.0 mg/kg/injection, schedule: Q01DX009 (ip), vehicle: Klucel (hydroxypropylcellulose) (HPC) 95 % of control | dose: 200.0 mg/kg/injection, schedule: Q01DX009 (ip), vehicle: Klucel (hydroxypropylcellulose) (HPC) 90 % of control | dose: 400.0 mg/kg/injection, schedule: Q01DX009 (ip), vehicle: Klucel (hydroxypropylcellulose) (HPC) 90 % of control

CCCCCC[n+]1cccc(C(N)=O)c1
inactive: [13] 100 % of control | [14] 94 % of control

O=c1cnc2ccc3ccccc3c2[nH]1
inactive: dose: 25.0 mg/kg/injection, schedule: Q04DX002 (ip), vehicle: Klucel (hydroxypropylcellulose) (HPC) 97 % of control | dose: 50.0 mg/kg/injection, schedule: Q04DX002 (ip), vehicle: Klucel (hydroxypropylcellulose) (HPC) 93 % of control | [1] 90 % of control

NC(=O)N/N=C/c1[nH]c(=S)[nH]c(=O)c1Cc1ccc(Br)cc1
inactive: [15] 107 % of control | [16] 95 % of control | [17] 98 % of control

C=C1CC2C=CC1C2 (stereo not drawn) (tested in a mixture with another compound)
inactive: [15] 98 % of control | [16] 93 % of control | [17] 94 % of control

CSc1sc2ccccc2[n+]1C
inactive: dose: 25.0 mg/kg/injection, schedule: Q01DX009 (ip), vehicle: saline 102 % of control | dose: 50.0 mg/kg/injection, schedule: Q01DX009 (ip), vehicle: saline 96 % of control and 108 % of control | [8] 97 % of control | [10] 113 % of control
